Measured values: patent US20050043280A1, “Use of active ingredients having a mu-opioid receptor agonist action and an opiod receptor antognist action, as combination drugs for the treatment of cancer” (priority 2001, published 2005)

How the values were obtained:
MCF-7 cells [1] = assay: Cytotoxic effects, survival rate of the cells (FIG. 3B); settings: standardized to untreated control cells = 100%; combinations with 100 μmol DAMGO
Description: The same cell line was used to determine the cytotoxic effects of these active ingredients by determining the rate of survival of the cells (FIG. 3B). […] TNFα was used as a positive control.
The survival rate was standardized to the number of untreated control cells representing 100%. Means±SEM from 4 repeat experiments.

[2] = system: human MCF-7 breast cancer cells; assay: Cell proliferation test (FIG. 3A); type: cell-based; settings: for proliferation of MCF-7 cells compared to the untreated control: 100 or 500 μmol DAMGO, 100 μmol naloxone, 500 μmol DAMGO+100 μmol naloxone
Description: FIG. 3A Proliferation of MCF-7 cells in vitro after treatment with 100 μmol DAMGO (solid triangles), 500 μmol DAMGO (solid squares)(left), 100 μmol naloxone (open circles) or the mixture containing 500 μmol DAMGO+100 μmol naloxone (open triangles)(right) versus untreated control cells (solid circles). Means±SEM from 4-6 repeat experiments.

MCF-7 cells [3] = assay: DNA cleavage rate with apoptosis assay kit (FIG. 4); type: cell-based, human; settings: 500 μmol; incubation for 24 hours
Experimental: In order to characterize apoptosis (cell death) in more detail, a commercial apoptosis assay kit that is in common use in science was used to measure the rate of DNA cleavage (FIG. 4).
FIG. 4 DNA cleavage rate after incubation of MCF-7 cells for 24 hours with the active ingredients at the dosages indicated on the abscissa. Means±SEM from 6 independent experiments. DNA cleavage was measured by assaying the mono- and oligonucleosomes with an apoptosis detection kit containing antihistones and anti-DNA antibodies.

MCF-7 cells [4] = settings: cited from earlier work
MCF-7 cells [5] = assay: Flow cytometry of annexin V and 7-AAD binding, apoptosis rate (FIG. 6); type: cell-based, human
MCF-7 cells [6] = settings: 24 hours after treatment; 0.5, 1.0, 2.0 mmol; combination 0.5 mmol morphine+0.1 mmol naloxone and 1 mmol+1 mmol
[7] = Development of the body weight during treatment (FIG. 1B); settings: 3 weeks of treatment as in FIG. 1A
Experimental: In an established pharmacological animal model, naked mice (NMRI-nu/nu; Harlan, Borchen) received a subcutaneous injection containing a cell suspension (5×10^6 cells in 300 μl per mouse) of human breast carcinoma cells (MCF-7 cell line).
A total of 5×10^6 cells were injected subcutaneously per mouse. […] The animals were treated with 10 mg/kg β-estradiol valerate (i.m.) one day before and 7 and 14 days after the injection of tumor cells. […] Tumor volume=(long diameter×short diameter^2)/2.
FIG. 1B Development of the body weight during treatment. Treatment as in 1A.

[8] = 1 mmol, 24 hours after treatment (not shown)
[9] = 2 mmol, 24 hours after treatment
[10] = 3 mmol, 24 hours after treatment

Compound	survival rate of MCF-7 cells (cytotoxic effect) (MCF-7 cells [1])	proliferation of MCF-7 cells compared to the untreated control [2]	time at which the maximal number of cells was attained ([2]; DAMGO-treated cultures)	cell death in treated cultures ([2]; between 48 and 72 hours)	rate of DNA cleavage compared to the untreated control (MCF-7 cells [3])	apoptosis in MCF-7 cells (positive control, known effect) (MCF-7 cells [4])	number of cells in late apoptosis (MCF-7 cells [5]; [8])	number of cells in late apoptosis (MCF-7 cells [5]; [9])	number of cells in late apoptosis (MCF-7 cells [5]; [10])	number of cells in G1 phase (block of cell cycle from G1 to S phase) (MCF-7 cells [6])	body weight [7]
C[C@@H](NC(=O)[C@@H](N)Cc1ccc(O)cc1)C(=O)NCC(=O)N(C)[C@@H](Cc1ccccc1)C(=O)NCCO [DAMGO, (D-Ala2, N-Methyl-Phe4, Gly-ol5)enkephalin]	concentration-dependent positive effect on the survival rate	reduced the cell division cycle substantially in a concentration-dependent fashion	48 h	a fraction of the cells on DAMGO treatment died	increase significantly	–	–	–	–	–	–
TNFα	–	–	–	–	–	induce apoptosis	–	–	–	–	–
CN1CC[C@]23c4c5ccc(O)c4O[C@H]2[C@@H](O)C=C[C@H]3[C@H]1C5 [morphine]	–	–	–	–	–	–	no longer detectable	less pronounced	clear increase in the number of cells in late apoptosis	concentration-dependent increase in the number of cells in G1 phase	weight loss
C=CCN1CC[C@]23c4c5ccc(O)c4O[C@H]2C(=O)CC[C@@]3(O)[C@H]1C5 [naloxone]	concentration-dependent positive effect on the survival rate	growth-inhibitory effect	–	–	increase significantly	–	no longer detectable	less pronounced	clear increase in the number of cells in late apoptosis	block the cell cycle in a similar fashion	increased slightly
